# Experimental data: patent publication US10358442B2, “2-homopiperazine-1-yl-4H-1,3-benzothiazine-4-one derivatives and process for the preparation of 2-(homo)piperazine 1,3-benzothiazine-4-one hydrochlorides” (Ecole Polytechnique Federale De Lausanne (EPFL), priority 2015, dated 2019)
# Tested on: M. tuberculosis NTB1
# Format: cell-based
row,SMILES,NTB1 MIC99 [µg/mL]
1,"CCCCCN1CCCN(c2nc(=O)c3cc(C(F)(F)F)cc([N+](=O)[O-])c3s2)CC1.Cl [Compound 2, 8-Nitro-2-(4-pentyl-1,4-diazepan-1-yl)-6-(trifluoromethyl)-4H-1,3-benzothiazin-4-one Hydrochloride]",>10
2,"Cl.O=c1nc(N2CCCN(C3CCCCC3)CC2)sc2c([N+](=O)[O-])cc(C(F)(F)F)cc12 [Compound 6, 2-(4-Cyclohexyl-1,4-diazepan-1-yl)-8-nitro-6-(trifluoromethyl)-4H-1,3-benzothiazin-4-one Hydrochloride]",50.5
3,"CCCCCCCN1CCCN(c2nc(=O)c3cc(C(F)(F)F)cc([N+](=O)[O-])c3s2)CC1.Cl [Compound 5, 2-(4-Heptyl-1,4-diazepan-1-yl)-8-nitro-6-(trifluoromethyl)-4H-1,3-benzothiazin-4-one Hydrochloride]",13.8
4,"Cl.O=c1nc(N2CCCN(CCC3CCCCC3)CC2)sc2c([N+](=O)[O-])cc(C(F)(F)F)cc12 [Compound 4, 2-[4-(2-Cyclohexylethyl)-1,4-diazepan-1-yl]-8-nitro-6-(trifluoromethyl)-4H-1,3-benzothiazin-4-one Hydrochloride]",>10
5,"Cl.O=c1nc(N2CCCN(CCc3ccccc3)CC2)sc2c([N+](=O)[O-])cc(C(F)(F)F)cc12 [Compound 7, 8-Nitro-2-[4-(2-phenylethyl)-1,4-diazepan-1-yl]-6-(trifluoromethyl)-4H-1,3-benzothiazin-4-one Hydrochloride]",27.1
6,"CCCCCCN1CCCN(c2nc(=O)c3cc(C(F)(F)F)cc([N+](=O)[O-])c3s2)CC1.Cl [Compound 3, 2-(4-Hexyl-1,4-diazepan-1-yl)-8-nitro-6-(trifluoromethyl)-4H-1,3-benzothiazin-4-one Hydrochloride]",>10
7,"O=c1nc(N2CCN(CC3CCCCC3)CC2)sc2c([N+](=O)[O-])cc(C(F)(F)F)cc12 [PBTZ169, 2-[4-(cyclohexylmethyl)piperazin-1-yl]-8-nitro-6-(trifluoromethyl)-4H-1,3-benzothiazin-4-one, reference compound]",>100
